Measured values taken from patent US12685733B2, “Indole molecules and use thereof in the inhibition of DNA polymerases” (BioVentures, LLC, priority 2019, dated 2026).

Legend:
[1] = tested on: MCF7 cells; assay: BrdU ssDNA / propidium iodide flow cytometry; type: cell-based; details: PNR-7-48 0.5 μM + Mirin 100 μM, 48 hours
Protocol: MCF7 cells were plated in 60 mm dishes at a confluency of 300,000 cells per dish and incubated overnight. Cells were treated the next day with BrdU (10 μM). The compounds were diluted in DMSO and added to the media at a final concentration of PNR-7-48 (0.5 μM) and Mirin (100 μM). The final concentration of DMSO was 0.1% (v/v). After 48 hours of treatment, media was removed and cells were washed in 1×PBS and trypsinized. Cells were then resuspended in media and centrifuged at 1500 rpm (calculate relative centrifugal force, RCF) for 5 minutes. The supernatant was removed, and again cells were washed and centrifuged. The supernatant was discarded and cells were resuspended in ice-cold 70% (v/v) ethanol prepared in 1×PBS while being vortexed. After overnight fixing at 4° C., cells were vortexed and centrifuged at 3000 rpm (RCF) for 10 minutes. Ethanol was removed leaving residual amounts for cell resuspension by vortexing. Fixed cells were stained with fluorescent anti-BrdU antibodies (FITC mouse anti-BrdU kit; 556028; BD) without prior acid treatment to detect only ssDNA. To confirm that the experimental cells had incorporated BrdU, aliquots of all nuclei were also denatured using HCL and then neutralized with sodium borate before staining with the anti-BrdU antibody. […] Samples were analyzed using the BD FACSCalibur Flow Cytometer in the UAMS Flow Cytometry Core. […]

[2] = target: T1, hpol κ (Homo sapiens, UniProt Q9UBT6); assay: HPG labeling (chemical footprinting) with LC-MS; parameters: hpol κ (residues 19-526); made in house; details: IAG-10 20 and 100 μM added
T1 sequence (Q9UBT6 19-526): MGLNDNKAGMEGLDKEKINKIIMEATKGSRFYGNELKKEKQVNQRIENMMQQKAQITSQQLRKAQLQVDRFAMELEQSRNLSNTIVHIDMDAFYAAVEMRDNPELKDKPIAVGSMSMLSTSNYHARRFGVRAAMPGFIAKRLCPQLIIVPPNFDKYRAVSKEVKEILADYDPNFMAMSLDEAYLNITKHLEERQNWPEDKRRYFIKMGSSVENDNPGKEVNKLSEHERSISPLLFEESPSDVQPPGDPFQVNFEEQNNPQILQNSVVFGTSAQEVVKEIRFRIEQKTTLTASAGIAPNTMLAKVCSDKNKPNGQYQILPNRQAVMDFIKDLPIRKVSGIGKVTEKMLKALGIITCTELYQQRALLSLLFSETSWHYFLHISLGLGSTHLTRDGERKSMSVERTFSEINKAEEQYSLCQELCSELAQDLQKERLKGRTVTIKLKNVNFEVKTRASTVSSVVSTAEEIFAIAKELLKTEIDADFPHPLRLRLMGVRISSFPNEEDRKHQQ
Protocol: HPG is a commonly used amino-acid modifier, which when reacted with a protein, modifies the L-arginine side chains selectively. HPG labeling experiments were performed with hpol κ (10 μM) in the presence or absence of UAMS-48. Briefly, hpol κ was pre-incubated with either 20 μM (1:2 molar ratio) or 100 μM (1:10 molar ratio) IAG-10 for 10 mins at 37° C. in 50 mM HEPES buffer (pH 7.8) containing 200 mM NaCl, 10 mM MgCl2, and 10% v/v DMSO. The HPG labeling was carried out at 37° C. in the dark for 1 hr by adding 500 μM of HPG to the pre-incubated reaction mix, followed by addition of 200 mM of free L-arginine to quench the reaction after 1 hr. […]
The peak intensity was then quantified manually using the corresponding m/z value and the relative abundance for each modified peptide was calculated as a function of area under the peak in Xcalibur™ software (ThermoFisher Scientific). The percentage of modified arginine measured by mass spectrometry was calculated as a fraction of total arginine (i.e. unmodified+HPG modified) quantified for a specific residue. […]
Next, Chemical footprinting was used in an effort to ascertain the binding site of IAG-10 on hpol κ. […] After quenching the reaction and gel electrophoresis, the modified protein was trypsin-digested, and the resulting peptides were analyzed by LC-MS. […]

For `Cl.[H]/N=C(\N)NN=Cc1cn(C(=O)c2cccc3ccccc23)c2ccc(Cl)cc12` [IAG-10, (E)-2-((1-(1-naphthoyl)-5-chloro-1H-indol-3-y1)methylene)hydrazine-1-carboximidamide hydrochloride], the “cell death (sub-G1 cells)” value [1] was “increases”, the “ssDNA gap formation (BrdU+ cells)” value [1] was “increases” and the “decrease in the fraction of HPG-modified peptides (Arg145, Arg149, Arg505)” value [2] was > 50%. For the same compound, the “fraction of HPG-modified peptides containing Arg48” value [2] was “large increase”.
